A short description of one experiment: cells. It counts as functional.
Experiment [1] can be described thus: Luminescence Cell-Based Dose Confirmation HTS to Identify Inhibitors of Platelet Dense Granule Release. [Related pubchem assays: 1663 (Primary HTS), 1678 (Summary of Project)]. It counts as functional.
Another experiment has as its target Large T antigen (Simian virus 40, UniProt P03070). In kind it is functional, Betapolyomavirus macacae.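 Note: Confirmatory-stage PubChem screen for compounds that inhibit SV40 T antigen.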
Experiment [2] concerns the target Luciferin 4-monooxygenase (Photinus pyralis, UniProt P08659). The experiment in a line: firefly luciferase enzyme inhibitors, dose response, biochemical, luminescence (AID 1891).
In a further experiment the test system is Streptococcus. The experiment in a line: Group A Streptococcus viability loss, dose response, counter-screen for streptokinase expression inhibitor project, luminescence, BacTiterGlo (AID 1915).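 Note: potency for reduction of bacterial viability or growth.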 In kind it is functional, organism-based. For orientation: Counterscreens check selectivity or assay interference.
In a further experiment the target is T1, Streptokinase A (Streptococcus pyogenes serotype M1, UniProt P10520).
T1 sequence (P10520 whole entry): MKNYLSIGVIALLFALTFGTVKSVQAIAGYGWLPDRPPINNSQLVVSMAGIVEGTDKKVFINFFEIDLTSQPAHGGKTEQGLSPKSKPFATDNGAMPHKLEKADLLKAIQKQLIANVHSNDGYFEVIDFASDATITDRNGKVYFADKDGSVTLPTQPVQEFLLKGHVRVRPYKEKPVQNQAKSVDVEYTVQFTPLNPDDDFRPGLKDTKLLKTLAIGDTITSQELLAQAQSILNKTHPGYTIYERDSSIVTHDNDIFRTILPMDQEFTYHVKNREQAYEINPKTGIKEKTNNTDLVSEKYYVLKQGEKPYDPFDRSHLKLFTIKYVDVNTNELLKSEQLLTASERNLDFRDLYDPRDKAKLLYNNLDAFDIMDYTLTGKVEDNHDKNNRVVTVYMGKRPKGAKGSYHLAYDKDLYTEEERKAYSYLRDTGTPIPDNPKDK
The experiment in a line: S. pyogenes streptokinase expression inhibitors, potency, dose response, plasminogen activation absorbance, OD405 (AID 1914).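 Note: secreted streptokinase activity via plasminogen activation per viability signal from cell pellet.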 It counts as functional, Streptococcus pyogenes M1 GAS.

For experiment [3], the system named is Streptococcus sp. 'group A'. The experiment can be described thus: growth inhibition of control SK(-) GAS strain, dose response, counter-screen for streptokinase expression inhibitor project, luminescence, kanamycin, BacTiterGlo, confirmation (AID 1900). It counts as functional, organism-based.
The target in another experiment is Cytochrome P450 2D6 (Homo sapiens, UniProt P10635).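 Note: CYP2D6 member of a cytochrome P450 panel assay.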
Experiment [4] in a line: cytotoxicity toward NIH3T3 fibroblasts, dose response, counter-screen, cell-based, ATP luminescence, mouse fibroblasts (AID 2010).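 Note: cells exposed to compound for about 90 hours before reading.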 In kind it is functional.
Experiment [5] is described as follows: inhibitors of intracellular T. cruzi replication, confirmation, NIH3T3 host cells, beta-gal luminescence (AID 2044).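 Note: intracellular parasites grown in NIH/3T3 mouse fibroblasts as host cells; luminescent beta-galactosidase reporter signal from transgenic T. cruzi replicating inside host cells; inhibitors lower the luminescence signal.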 It counts as functional, cell-based.
The target of experiment [6] is T2, Zinc finger protein mex-5 (Caenorhabditis elegans, UniProt Q9XUB2).
T2 sequence (Q9XUB2 whole entry): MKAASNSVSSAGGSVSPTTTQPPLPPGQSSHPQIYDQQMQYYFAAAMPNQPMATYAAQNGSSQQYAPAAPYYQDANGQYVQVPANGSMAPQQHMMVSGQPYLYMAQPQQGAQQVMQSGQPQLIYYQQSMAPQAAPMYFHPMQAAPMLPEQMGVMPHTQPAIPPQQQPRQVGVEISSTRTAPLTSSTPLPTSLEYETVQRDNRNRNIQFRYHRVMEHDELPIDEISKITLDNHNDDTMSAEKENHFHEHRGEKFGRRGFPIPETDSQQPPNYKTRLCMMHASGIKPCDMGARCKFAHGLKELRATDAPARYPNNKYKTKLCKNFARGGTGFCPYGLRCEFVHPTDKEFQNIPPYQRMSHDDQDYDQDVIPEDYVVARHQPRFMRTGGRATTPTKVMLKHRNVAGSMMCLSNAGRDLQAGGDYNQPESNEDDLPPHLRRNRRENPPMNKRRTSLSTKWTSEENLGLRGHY
The experiment can be described thus: MEX-5/TCR-2 RNA interaction inhibitors, dose response, biochemical, C. elegans, fluorescence polarization (AID 1960). (Fluorescence polarisation rises when a labelled molecule tumbles more slowly, as on binding a larger partner.)

Experiment [7] deals with T3, RNA-binding protein pos-1 (Caenorhabditis elegans, UniProt G5EF15).
T3 sequence (G5EF15 whole entry): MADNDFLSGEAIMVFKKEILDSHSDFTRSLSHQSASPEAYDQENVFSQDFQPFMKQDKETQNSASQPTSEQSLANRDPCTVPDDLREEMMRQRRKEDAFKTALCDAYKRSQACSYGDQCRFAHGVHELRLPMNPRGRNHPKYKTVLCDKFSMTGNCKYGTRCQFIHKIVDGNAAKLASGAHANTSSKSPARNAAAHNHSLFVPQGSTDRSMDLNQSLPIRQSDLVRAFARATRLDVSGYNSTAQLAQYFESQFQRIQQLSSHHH
The experiment in a line: inhibitors of POS-1/mex-3 RNA binding, dose response, biochemical, fluorescence polarization (AID 1964).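 Note: purified POS-1 fused to maltose binding protein made in E. coli; potency of compounds blocking POS-1 binding to fluorescent RNA.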

For a further experiment, the target named is Cytochrome P450 2C19 (Homo sapiens, UniProt P33261). The experiment in a line: Cytochrome panel assay with activity outcomes. Panel member name: p450-cyp2c19 Compounds with AC50 equal or less than 10 uM are considered active. It counts as functional. As to conditions: read-out: AC50.
The target in a further experiment is Cytochrome P450 3A4 (Homo sapiens, UniProt P08684).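 Note: CYP3A4 tested as one member of a cytochrome P450 panel screen.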
Experiment [8] addresses T4, Rac GTPase-activating protein 1 (Homo sapiens, UniProt Q9H0H5).
T4 sequence (Q9H0H5 whole entry): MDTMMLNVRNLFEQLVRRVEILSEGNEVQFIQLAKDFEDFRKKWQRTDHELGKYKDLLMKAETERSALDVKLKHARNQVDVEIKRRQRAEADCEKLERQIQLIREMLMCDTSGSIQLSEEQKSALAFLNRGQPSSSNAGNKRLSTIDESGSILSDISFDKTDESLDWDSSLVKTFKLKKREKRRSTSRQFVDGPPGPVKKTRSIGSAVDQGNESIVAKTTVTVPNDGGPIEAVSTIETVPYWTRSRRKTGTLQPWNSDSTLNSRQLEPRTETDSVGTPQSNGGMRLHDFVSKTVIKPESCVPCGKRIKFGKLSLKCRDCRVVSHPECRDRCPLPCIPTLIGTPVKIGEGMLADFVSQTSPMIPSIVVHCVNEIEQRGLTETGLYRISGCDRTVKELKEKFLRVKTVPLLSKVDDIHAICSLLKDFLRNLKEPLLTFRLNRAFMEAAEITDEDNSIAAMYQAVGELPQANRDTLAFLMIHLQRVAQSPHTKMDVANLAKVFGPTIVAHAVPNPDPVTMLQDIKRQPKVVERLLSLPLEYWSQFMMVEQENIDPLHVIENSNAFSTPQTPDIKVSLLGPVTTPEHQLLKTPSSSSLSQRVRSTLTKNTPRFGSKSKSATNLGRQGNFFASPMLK
The experiment in a line: MgcRacGAP GTPase-activating activity inhibitors, confirmation, biochemical, ADP Hunter fluorescence, primary and confirmatory (AID 624330). It counts as functional.

The subject of another experiment is INS1. The experiment can be described thus: beta cell apoptosis inhibitors, cytokine rescue, dose response, luminescence, retest (AID 449756).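 Note: cell death triggered by IL-1 beta plus TNF-alpha plus IFN-gamma mixture; protective hits raise ATP signal compared with cytokine alone wells.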 In kind it is functional, cell-based. The settings on record: Rattus norvegicus.
The nature of experiment [9]: HEp-2 cell cytotoxicity, dose response, cytotoxicity control for RSV inhibitor project, HTS (AID 2410). In kind it is functional. As to conditions: human respiratory syncytial virus.

The values that follow come from ChEMBL document CHEMBL1201862, “PubChem BioAssay data set” (2004).

What is called IC50 is the concentration at which inhibition is half-maximal. As usually defined, the EC50 is the concentration giving half of the maximal effect. The AC50 is the concentration at which the activity in the assay is half-maximal. What is called CC50 is the concentration that lowers cell viability or growth by half.

Activity calls are given as the source filed them. Where only a bound is given, the exact number is not on record here.

Sequence of Cytochrome P450 2D6 (P10635 whole entry): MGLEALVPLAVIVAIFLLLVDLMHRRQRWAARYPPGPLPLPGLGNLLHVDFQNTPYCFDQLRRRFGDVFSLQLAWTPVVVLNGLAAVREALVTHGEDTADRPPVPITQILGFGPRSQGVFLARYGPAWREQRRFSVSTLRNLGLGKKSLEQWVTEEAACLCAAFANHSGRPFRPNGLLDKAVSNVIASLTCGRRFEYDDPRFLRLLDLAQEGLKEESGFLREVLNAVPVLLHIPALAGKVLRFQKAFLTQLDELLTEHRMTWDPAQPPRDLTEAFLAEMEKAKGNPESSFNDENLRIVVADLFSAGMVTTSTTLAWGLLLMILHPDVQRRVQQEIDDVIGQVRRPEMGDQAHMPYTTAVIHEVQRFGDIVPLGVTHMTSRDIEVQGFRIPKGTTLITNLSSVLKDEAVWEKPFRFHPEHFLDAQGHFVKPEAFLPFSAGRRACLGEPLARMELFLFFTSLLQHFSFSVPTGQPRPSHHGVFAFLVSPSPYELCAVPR
Sequence of Large T antigen (P03070 whole entry): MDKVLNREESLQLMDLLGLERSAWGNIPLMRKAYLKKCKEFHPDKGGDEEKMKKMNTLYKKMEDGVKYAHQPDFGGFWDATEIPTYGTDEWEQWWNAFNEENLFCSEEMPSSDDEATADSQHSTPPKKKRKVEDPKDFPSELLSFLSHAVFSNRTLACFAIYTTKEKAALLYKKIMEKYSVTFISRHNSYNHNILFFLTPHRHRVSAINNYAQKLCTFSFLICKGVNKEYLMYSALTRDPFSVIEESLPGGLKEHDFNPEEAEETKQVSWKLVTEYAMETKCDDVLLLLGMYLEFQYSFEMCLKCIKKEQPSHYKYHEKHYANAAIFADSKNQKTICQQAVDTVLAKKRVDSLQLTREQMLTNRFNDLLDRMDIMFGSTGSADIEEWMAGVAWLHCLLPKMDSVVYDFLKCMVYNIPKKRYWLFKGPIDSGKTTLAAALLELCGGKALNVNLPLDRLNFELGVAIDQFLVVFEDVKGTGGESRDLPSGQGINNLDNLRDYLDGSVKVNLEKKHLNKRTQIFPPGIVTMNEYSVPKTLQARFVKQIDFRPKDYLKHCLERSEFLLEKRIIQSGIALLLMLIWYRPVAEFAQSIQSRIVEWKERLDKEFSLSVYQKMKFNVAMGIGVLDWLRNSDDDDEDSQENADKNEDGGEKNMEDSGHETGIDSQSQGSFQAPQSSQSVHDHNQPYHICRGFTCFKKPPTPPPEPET
Sequence of Luciferin 4-monooxygenase (P08659 whole entry): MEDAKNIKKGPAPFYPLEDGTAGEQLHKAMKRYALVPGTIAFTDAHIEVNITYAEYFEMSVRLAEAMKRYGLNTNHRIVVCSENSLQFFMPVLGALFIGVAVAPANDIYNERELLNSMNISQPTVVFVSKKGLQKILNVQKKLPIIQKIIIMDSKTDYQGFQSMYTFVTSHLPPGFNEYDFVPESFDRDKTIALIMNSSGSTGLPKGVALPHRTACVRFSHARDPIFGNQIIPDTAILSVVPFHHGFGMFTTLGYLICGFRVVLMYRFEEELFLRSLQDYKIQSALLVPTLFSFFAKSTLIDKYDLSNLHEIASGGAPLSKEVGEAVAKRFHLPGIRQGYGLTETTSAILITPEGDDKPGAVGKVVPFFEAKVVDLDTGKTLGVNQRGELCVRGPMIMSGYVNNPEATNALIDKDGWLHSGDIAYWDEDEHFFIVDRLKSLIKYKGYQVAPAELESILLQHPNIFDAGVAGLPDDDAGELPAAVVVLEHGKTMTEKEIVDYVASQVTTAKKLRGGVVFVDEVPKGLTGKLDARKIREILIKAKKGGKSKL
Sequence of Cytochrome P450 2C19 (P33261 whole entry): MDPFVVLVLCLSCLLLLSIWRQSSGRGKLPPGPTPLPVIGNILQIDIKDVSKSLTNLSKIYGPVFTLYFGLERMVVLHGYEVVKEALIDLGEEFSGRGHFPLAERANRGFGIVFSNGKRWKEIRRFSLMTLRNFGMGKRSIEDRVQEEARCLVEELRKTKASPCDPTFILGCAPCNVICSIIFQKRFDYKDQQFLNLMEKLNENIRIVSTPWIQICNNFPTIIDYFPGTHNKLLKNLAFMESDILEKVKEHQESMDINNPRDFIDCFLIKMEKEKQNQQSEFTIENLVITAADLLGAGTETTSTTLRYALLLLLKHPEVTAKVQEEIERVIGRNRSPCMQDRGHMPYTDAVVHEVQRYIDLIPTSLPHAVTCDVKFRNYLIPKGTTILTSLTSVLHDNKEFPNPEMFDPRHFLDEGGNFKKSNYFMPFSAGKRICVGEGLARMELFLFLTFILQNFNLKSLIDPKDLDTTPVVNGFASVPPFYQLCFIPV
Sequence of Cytochrome P450 3A4 (P08684 whole entry): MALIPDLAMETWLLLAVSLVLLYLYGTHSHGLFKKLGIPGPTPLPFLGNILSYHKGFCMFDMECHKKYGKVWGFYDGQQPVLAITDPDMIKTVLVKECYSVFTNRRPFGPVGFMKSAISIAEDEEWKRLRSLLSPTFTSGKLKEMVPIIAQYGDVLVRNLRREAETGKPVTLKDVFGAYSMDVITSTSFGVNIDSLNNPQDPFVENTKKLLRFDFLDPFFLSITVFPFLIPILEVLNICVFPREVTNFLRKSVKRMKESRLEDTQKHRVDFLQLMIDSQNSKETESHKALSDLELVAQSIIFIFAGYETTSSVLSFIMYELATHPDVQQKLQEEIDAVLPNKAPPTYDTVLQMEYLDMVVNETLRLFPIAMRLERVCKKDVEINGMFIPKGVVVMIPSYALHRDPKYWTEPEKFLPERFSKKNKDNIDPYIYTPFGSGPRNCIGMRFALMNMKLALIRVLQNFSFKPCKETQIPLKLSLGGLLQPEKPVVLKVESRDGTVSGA

On to `CCOC(=O)c1cc(-c2csc(COc3ccccc3)n2)on1`, for which, in the experiment “cells”, the half-maximal inhibitory concentration (IC50) was < 0.1 µM (active).
For the molecule `COc1cc2c(cc1OC)-c1cc(Nc3ccc(N(C)C)cc3)nc(=O)n1CC2`, the half-maximal effective concentration (EC50) was 4.83 µM (active) in experiment [1] and > 112 µM (not active) in [2]. Moreover, the IC50 at Large T antigen is 2.74 µM (active).
As to `CCN(CC)c1nc(C(F)(F)F)nc2c1nnn2Cc1ccccc1`, the concentration for a half-maximal effect (EC50) in the experiment on Streptococcus was > 150 µM (not active); on Streptokinase A, 12.4 µM (active); in [3], 7.21 µM (active).
On to `O=C(CSc1nc2ccccc2s1)Nc1nccs1`, for which the AC50 on Cytochrome P450 2D6 was 0.316 µM (inconclusive).
`O=C(Nc1nnc(C2=COCCO2)o1)c1cccc(C(F)(F)F)c1`: the EC50 in the experiment with Streptococcus is 7.55 µM (active); in experiment [3], 2.96 µM (active). The IC50 in “cells” is 4.89 µM (active).
On to `O=C(O)[C@@H]1Cc2c([nH]c3ccccc23)[C@@H](CCCCO)N1`, for which the AC50 on Cytochrome P450 2D6 is 3.98 µM (inconclusive).
Consider `Cc1ccc(C(=O)NNC2=Nc3cccc4cccc2c34)cc1`, for which the 50% effective concentration (EC50) in the experiment with Streptococcus was > 150 µM (not active); on Streptokinase A, > 150 µM (not active); in experiment [3], 3.26 µM (active).
Regarding `O=C(Nc1ccc(F)cc1)c1cc(S(=O)(=O)N2CCCCC2)cs1`, the AC50 on Cytochrome P450 2D6 was 25.1 µM (inconclusive).
For `O=C(CSc1nnc(CNC(=O)c2c(F)cccc2F)o1)NCCc1ccccc1`, the EC50 (with Streptococcus; at Streptokinase A; in experiment [3]) was > 150 µM (not active) in each case.
Turning to `COc1ccc2nc(C3CCCCC3)nc(C3CCCCC3)c2c1`, the values for the EC50 (with Streptococcus; on Streptokinase A; in experiment [3]) were 5.71 µM (active), > 150 µM (not active) and 2.8 µM (active), respectively.
Regarding `CCOC(=O)c1sc2nccc(N(C)C)c2c1N=CNOCc1c(F)cccc1Cl`, the EC50 in the experiment on Streptococcus was > 150 µM (not active); on Streptokinase A, 27 µM (active); in experiment [4], > 60 µM (not active); in [3], 11.6 µM (active); in [5] it was 1.26 µM (active).
Take `CCCCCCNC(=O)N[C@H](C(=O)NCCC[C@H]1CN2C(=NC[C@H]2C)N1CCC(c1ccccc1)c1ccccc1)C(C)O` (some centres not stated): the IC50 at Large T antigen was > 100 µM (active).
As for `CCOC(=O)COc1ccc2c(c1)c(C(=O)OCC)c(C)n2CC`, the half-maximal inhibitory concentration (IC50) in “cells” was 5.46 µM (active).
Turning to `CCOC(=O)c1c(NC(=O)CC2Nc3ccccc3NC2=O)sc(C)c1C` (configuration not stated), the EC50 in experiment [6] and in [7] was > 300 µM (not active) throughout.
For the molecule `Cc1ccc(N(CCC#N)C(=O)CSc2ccc3c(c2)OCCO3)cc1`, the AC50 on Cytochrome P450 2D6 was 25.1 µM (inconclusive).
For the molecule `Fc1ccc(N2CCN(Cc3c[nH]nc3-c3ccccc3)CC2)cc1`, the EC50 (with Streptococcus; on Streptokinase A; in [3]) was > 150 µM (not active) in each case.
For the molecule `COC(=O)c1[nH]c2ccccc2c1/C=C1\C(=O)NC(=O)N(c2ccc(OC)cc2)C1=O`, the IC50 on Large T antigen is 89 µM (active).
`O=C1NC(=O)N(Cc2ccccc2Cl)C(=O)/C1=C/Nc1ccc(F)cc1`: the EC50 in experiment [6] and in [7] was > 300 µM (not active) each time.
`COC(=O)c1cc(C(=O)OC)cc(-n2c(C)cc(C(=O)CC#N)c2C)c1`: the EC50 in experiment [6] and in experiment [7] was > 300 µM (not active) throughout.
Consider `O=C(Nc1ccc2c(c1)CCC2)c1ccc(Br)o1`, for which, in the experiment “cells”, the IC50 was > 50 µM (active).
Regarding `N#CC1=C(N)Oc2[nH]nc(-c3cccnc3)c2C1c1ccc([N+](=O)[O-])o1` (configuration not stated), the half-inhibitory concentration (IC50) in “cells” is 9.19 µM (active).
Turning to `COc1ccccc1-c1nc(NCc2cnc(C)cn2)c2ccccc2n1`, the AC50 was 39.8 µM (inconclusive) at Cytochrome P450 2C19 and 31.6 µM (inconclusive) at Cytochrome P450 2D6.
In the case of `Fc1cccc(/C=N\N=C/c2cccc(F)c2)c1`, the values for the half-maximal activity concentration (AC50) at Cytochrome P450 3A4 and at Cytochrome P450 2D6 were 31.6 µM (inconclusive) and 25.1 µM (inconclusive), respectively.
Regarding `N=c1c(C(=O)NC2CCCCC2)cc2c(=O)n3ccccc3nc2n1Cc1cccnc1`, the EC50 in experiment [6] was 12.7 µM (active); in experiment [7], > 300 µM (not active).
The like results for `Cc1ccc(S(=O)(=O)CCSc2nc(C)cc(C(F)(F)F)c2C#N)cc1` were, in that order, 80.8 µM (active) and > 300 µM (not active).
As for `COCC(=O)N1CCC[C@@]2(CCN(c3ncccn3)C2)C1`, on Cytochrome P450 2D6, the concentration at half-maximal activity (AC50) is 15.8 µM (inconclusive).
Turning to `C/N=c1\scc(C)n1/N=C/c1ccc(O)cc1O`, the IC50 in [8] was 10.5 µM (active); at Large T antigen, 4.27 µM (active).
With `CCn1cc(C(=O)O)c(=O)c2cc(F)c(N/N=C/c3ccccc3[N+](=O)[O-])cc21`, the concentration giving a half-maximal response (EC50) was 13.4 µM (active) in the experiment on Streptococcus, > 150 µM (not active) on Streptokinase A and 4.31 µM (active) in experiment [3]. For the same molecule, the half-maximal activity concentration (AC50) in the experiment with INS1 was 10.1 µM (active).
As to `C/C(=N\Nc1ccc(Cl)c(Cl)c1)c1ccc(-n2ccnc2)cc1`, the EC50 is 11.9 µM (active) with Streptococcus, 17.2 µM (active) at Streptokinase A and 3.05 µM (active) in [3]. Besides, the cytotoxic concentration (CC50) in [9] is 35.9 µM (active).
Regarding `Oc1ccc2[nH]ccc2c1`, the IC50 on Large T antigen is 80.2 µM (active).
